Results reported in patent US20230021483A1, “[…] […] METHOD AND CLASSIFICATION OF PHARMACEUTICAL COMPONENTS BY USING TRANSCRIPTOMES” (National Institutes of Biomedical Innovation, Health and …, priority 2016, published 2023).
Where “and” joins values, the source holds several entries; their conditions need not be identical. Identical values can stand only once.

Key:
[1] = literature reports; cited from earlier work
[2] = tested on: inguinal lymph nodes (LN); assay: Whole organ transcriptome (GeneChip microarray) of draining inguinal lymph nodes 6 h after adjuvant administration: sDEGs, gene modules, hierarchical clustering; type: in vivo, C57BL/6 mice; for adjuvant group (cluster) in LN: key: G1 (interferon signaling); G2 (metabolism of lipids and lipoproteins); G3 (response to stress); G4 (response to wounding); G5 (phosphate-containing compound metabolic process); G6 (phagosome)
LV, SP and LNs = assay: Whole organ transcriptome across organs (adjuvant gene space): gene responses and adjuvant grouping; type: in vivo, C57BL/6 mice; conditions: hierarchical clustering; LV, SP and/or LNs
[3] = tested on: preferentially upregulated genes in LV, SP, LN; assay: Z-score-based differential gene expression analysis (adjuvant group- or adjuvant-associated genes, 40 module mapping, TargetMine annotation); type: in vivo, C57BL/6 mice; design: key to z sum, 1458589_at ---: sum of the per-gene fold-change z-scores of the triplicate samples; conditions: ID, LN
How it was run: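 Gene groups for each organ were built from combined z-score cutoffs across adjuvants, ranging from z>1 to z>3. Scores came from fold changes standardized per gene over the whole organ data set, with the three replicate z-scores added per adjuvant; sums above 3 marked preferential expression.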

In the case of `Nc1nc2c(ncn2[C@@H]2O[C@@H]3COP(=O)(O)O[C@H]4[C@@H](O)[C@H](n5cnc6c(=O)[nH]c(N)nc65)O[C@@H]4COP(=O)(O)O[C@H]3[C@H]2O)c(=O)[nH]1` [cdiGMP, Cyclic diguanylate monophosphate], the Th response induced [1] is given as “appears to induce Th1 responses”, the “module M40^LN (immune system process; dendritic cells, macrophages, neutrophils, stromal cells)” value ([2]; LN, 6 h) is given as “strongly induced” and the “adjuvant group (cluster) in LN” value ([2]; hierarchical clustering, lymph node) is given as “G1”. For the same compound, the “adjuvant group (cluster) within the adjuvant gene space” value (LV, SP and LNs) was “group (G) 1”, the “z sum, 1428027_at LOC100653389” value ([3]; Modules 26) was 3.943 and the “z sum, 1419721_at Niacr1” value ([3]; Modules 27) was 3.925. The “z sum, 1418424_at Tnfaip6” value ([3]; Modules 29) was 3.961, the “z sum, 1419534_at Olr1” value ([3]; Modules 29) was 3.953 and the “z sum, 1421457_a_at Samsn1” value ([3]; Modules 29) was 3.927. For the same compound, the “z sum, 1422305_at Ifnb1” value ([3]; Modules 29) was 3.959, the “z sum, 1423028_at Ifna2” value ([3]; Modules 29) was 3.966 and the “z sum, 1425837_a_at Ccrn4l” value ([3]; Modules 29) was 3.961. For the same compound, the “z sum, 1436387_at C330006P03Rik///Homer1” value ([3]; Modules 29) was 3.967, the “z sum, 1439349_at Sbno2” value ([3]; Modules 29) was 3.94 and the “z sum, 1444010_at Eif4e” value ([3]; Modules 29) was 3.936. The “z sum, 1448325_at Ppp1r15a” value ([3]; Modules 29) was 3.957, the “z sum, 1449311_at Bach1” value ([3]; Modules 29) was 3.924 and the “z sum, 1450297_at Il6” value ([3]; Modules 29) was 3.956. For the same compound, the “z sum, 1455197_at Rnd1” value ([3]; Modules 29) was 3.976, the “z sum, 1455899_x_at Socs3” value ([3]; Modules 29) was 3.93 and the “z sum, 1417252_at Ptgs2” value ([3]; Modules 34) was 3.953. For the same compound, the “z sum, 1417263_at Ptgs2” value ([3]; Modules 34) was 3.945, the “z sum, 1419132_at Tfr2” value ([3]; Modules 34) was 3.95 and the “z sum, 1421473_at Il1a” value ([3]; Modules 34) was 3.96. For the same compound, the “z sum, 1439981_at Tespa1” value ([3]; Modules 35) was 3.95, the “z sum, 1441843_s_at 5230400M03Rik” value ([3]; Modules 35) was 3.967 and the “z sum, 1442556_at ---” value ([3]; Modules 35) was 3.981. For the same compound, the “z sum, 1443414_at C78513” value ([3]; Modules 35) was 3.922, the “z sum, 1444598_at ---” value ([3]; Modules 35) was 3.93 and the “z sum, 1445534_at ---” value ([3]; Modules 35) was 3.938. For the same compound, the “z sum, 1446245_at ---” value ([3]; Modules 35) was 3.919, the “z sum, 1457944_at ---” value ([3]; Modules 35) was 3.94 and the “z sum, 1458376_at B930025B16Rik” value ([3]; Modules 35) was 3.963. For the same compound, the “z sum, 1459144_at ---” value ([3]; Modules 35) was 3.966, the “z sum, 1425687_at Cflar” value ([3]; Modules 36) was 3.968 and the “z sum, 1427736_a_at Ccrl2” value ([3]; Modules 36) was 3.958. The “z sum, 1449169_at Has2” value ([3]; Modules 36) was 3.922, the “z sum, 1453636_at Pcgf5” value ([3]; Modules 36) was 3.972 and the “z sum, 1457888_at ---” value ([3]; Modules 36) was 3.925. The “z sum, 1419508_at Ripk1” value ([3]; Modules 37) was 3.938, the “z sum, 1421578_at Ccl4” value ([3]; Modules 37) was 3.99 and the “z sum, 1421679_a_at Cdkn1a” value ([3]; Modules 37) was 3.98. The “z sum, 1424638_at Cdkn1a” value ([3]; Modules 37) was 3.93, the “z sum, 1433508_at Klf6” value ([3]; Modules 37) was 3.947 and the “z sum, 1434350_at Csrnp1” value ([3]; Modules 37) was 3.966. For the same compound, the “z sum, 1439680_at Tnfsf10” value ([3]; Modules 37) was 3.927, the “z sum, 1448724_at Cish” value ([3]; Modules 37) was 3.94 and the “z sum, 1451340_at Arid5a” value ([3]; Modules 37) was 3.953. The “z sum, 1453851_a_at Gadd45g” value ([3]; Modules 37) was 3.961, the “z sum, 1457404_at Nfkbiz” value ([3]; Modules 37) was 3.989 and the “z sum, 1458589_at ---” value ([3]; Modules 37) was 3.945. For the same compound, the “z sum, 1422054_a_at 5kil” value ([3]; Modules 40) was 3.92, the “z sum, 1428735_at Cd69” value ([3]; Modules 40) was 3.941 and the “z-score of fold change, 1428027_at LOC100653389” value ([3]; samples x1-x3, Modules 26) was 1.302 and 1.534 and 1.106. The “z-score of fold change, 1419721_at Niacr1” value ([3]; samples x1-x3, Modules 27) was 1.493 and 1.403 and 1.03, the “z-score of fold change, 1418424_at Tnfaip6” value ([3]; samples x1-x3, Modules 29) was 1.141 and 1.631 and 1.189 and the “z-score of fold change, 1419534_at Olr1” value ([3]; samples x1-x3, Modules 29) was 1.484 and 1.094 and 1.375. For the same compound, the “z-score of fold change, 1421457_a_at Samsn1” value ([3]; samples x1-x3, Modules 29) was 1.437 and 1.192 and 1.298 and the “z-score of fold change, 1422305_at Ifnb1” value ([3]; samples x1-x3, Modules 29) was 0.997 and 1.431 and 1.532.
